In US6605634B2 (Amgen, Inc., priority 1996, dated 2003) one finds IC50 data, which are given here for 26 compounds.

The subject of the experiment is production of tumor necrosis factor (TNF) by monocytes activated with bacterial lipopolysaccharide (LPS). Nature of the experiment: Lipopolysaccharide-activated Monocyte TNF Production Assay. The format is cell-based. The note with it: Homo sapiens, TNF in culture supernatants by ELISA, read-out: IC50 (concentration of test compounds causing a 50% reduction in TNF production). How it is done: Lipopolysaccharide-activated Monocyte TNF Production Assay
Test compounds were evaluated in vitro for the ability to inhibit the production of tumor necrosis factor (TNF) by monocytes activated with bacterial lipopolysaccharide (LPS). Fresh residual source leukocytes (a byproduct of plateletpheresis) were obtained from the local blood bank and peripheral blood mononuclear cells (PBMCs) were isolated by density gradient centrifugation on Ficol-Paque Plus (Pharmacia). PBMCs were suspended at 2×10^6/ml in DMEM supplemented to contain 2% FCS (10 mM), 0.3 mg/ml glutamate, 100 U/ml penicillin G and […] streptomycin sulfate (complete media). Cells were plated into Falcon flatbottom 96 well culture plates (200 μl/well) and cultured overnight at 37° C. and 6% CO2. Nonadherent cells were removed by washing with 200 μl/well of fresh medium. Wells containing adherent cells (˜70% monocytes) were replenished with 100 μl of fresh medium.
Preparation of Test Compound Stock Solutions
Test compounds were dissolved in […]. Compound stock solutions were prepared to an initial concentration of […]. Stocks were diluted initially to 20-200 μM in complete media. Nine two-fold serial dilutions of each compound were then prepared in complete medium.
Treatment of Cells with Test Compounds and Activation of TNF Production with Lipopolysaccharide
One hundred microliters of each test compound dilution were added to microtiter wells containing adherent monocytes and 100 μl complete medium. Monocytes were cultured with test compounds for 60 min at which time 25 μl of complete medium containing 30 ng/ml lipopolysaccharide from E. coli K532 were added to each well. Cells were cultured an additional 4 hrs. Culture supernatants were then removed and TNF present in the supernatants was quantified using an ELISA.
Flat bottom 96 well Coming High Binding ELISA plates were coated overnight (4° C.) with 150 μL/well of 3 μg/ml murine anti-human TNFa MAb (R&D Systems #MAB210). Wells were then blocked 1 h at room temperature with 200 μL/well of CaCl2-free ELISA buffer supplemented to contain 20 mg/ml BSA (standard ELISA buffer: […], 150 mM NaCl, 2 mM CaCl2, 0.15 mM thimerosal, pH 7.4). Plates were washed and replenished with 100 μl of test supernatants (diluted 1:3) or standards. Standards consisted of eleven 1.5-fold serial dilutions from a stock of 1 ng/ml recombinant human TNF (R&D Systems). Plates were incubated at room temperature for 1 h on orbital shaker (300 rpm), washed and replenished with 100 μl/well of 0.5 jig/ml goat anti-human TNFa (R&D systems #AB-210-NA) biotinylated at a 4:1 ratio. Plates were incubate for 40 min, washed and replenished with 100 μl/well of alkaline phosphatase-conjugated streptavidin (Jackson ImmunoResearch #016-050-084) at 0.02 μg/ml. Plates were incubated 30 min, washed and replenished with 200 μl well of 1 mg/ml of p-nitrophenyl phosphate. After 30 min, plates were read at 405 nm on a Vmax plate reader.
Standard curve data were fit to a second order polynomial and unknown TNF-a concentrations determined from their OD by solving this equation for concentration. TNF concentrations were then plotted Vs test compound concentration using a second order polynomial. This equation was then used to calculate the concentration of test compounds causing a 50% reduction in TNF production.
A general note: An ELISA detects its analyte on a solid surface through an enzyme-linked reagent.

Turning to `O=S(=O)(Nc1ccc2c(-c3ccncc3)c(-c3ccc(F)cc3)[nH]c2n1)c1ccc(Cl)s1` [Compound 95, 6-(2′-(5-chlorothienyl)sulfonylamino)-3-(4-pyridyl)-2-(4-fluorophenyl)-7-aza-indole], the IC50 was < 20 µM.

Regarding `O=C(CCN1C(=O)c2ccccc2C1=O)Nc1ccc2c(-c3ccncc3)c(-c3ccc(F)cc3)[nH]c2n1` [Compound 98, 6-(3′-N-phthaloyl-1′-oxo-propylamino)-3-(4-pyridyl)-2-(4-fluorophenyl)-7-aza-indole], the IC50 was < 20 µM. `Fc1ccc(-c2[nH]c3nccnc3c2-c2ccncc2)cc1` [Compound 99, 3-(4-pyridyl)-2-(4-fluorophenyl)-4,7-diaza-indole]: the IC50 is < 20 µM. Regarding `CC(C)(C)OC(=O)N1CCC[C@H]1C(=O)Nc1ccc2c(-c3ccncc3)c(-c3ccc(F)cc3)[nH]c2n1` [Compound 100, 6-(2′-N-t-Butoxycarbonyl-L-prolylamino)-3-(4-pyridyl)-2-(4-fluorophenyl)-7-aza-indole], the IC50 was < 20 µM. On to `O=C(Nc1ccc2c(-c3ccncc3)c(-c3ccc(F)cc3)[nH]c2n1)[C@@H]1CCCN1` [Compound 101, 6-(2′-L-prolylamino)-3-(4-pyridyl)-2-(4-fluorophenyl)-7-aza-indole], for which the IC50 was < 20 µM.

As to `C[C@@H](C(=O)Nc1ccc2c(-c3ccncc3)c(-c3ccc(F)cc3)[nH]c2n1)N(C)C` [Compound 102, 6-(2S′-dimethylamino-1′-oxo-propylamino)-3-(4-pyridyl)-2-(4-fluorophenyl)-7-aza-indole], the IC50 was < 1 µM. On to `CN(C)CC(=O)Nc1ccc2c(-c3ccncc3)c(-c3ccc(F)cc3)[nH]c2n1` [Compound 103, 6-(2′-Dimethylamino-1′-oxo-ethylamino)-3-(4-pyridyl)-2-(4-fluorophenyl)-7-aza-indole], for which the IC50 was < 20 µM.

As to `CN(CC(=O)Nc1ccc2c(-c3ccncc3)c(-c3ccc(F)cc3)[nH]c2n1)C(=O)OC(C)(C)C` [Compound 104, 6-(2′-N-methyl-t-butoxycarbonylamino-1′-oxo-ethylamino)-3-(4-pyridyl)-2-(4-fluorophenyl)-7-aza-indole], the IC50 is < 1 µM. For `CNCC(=O)Nc1ccc2c(-c3ccncc3)c(-c3ccc(F)cc3)[nH]c2n1` [Compound 105, 6-(2′-N-methyl-amino-1′-oxo-ethylamino)-3-(4-pyridyl)-2-(4-fluorophenyl)-7-aza-indole], the IC50 is < 1 µM.

As to `CC(C)(C)OC(=O)N1CCC(C(=O)Nc2ccc3c(-c4ccncc4)c(-c4ccc(F)cc4)[nH]c3n2)CC1` [Compound 106, 6-(4′-N-t-butoxycarbonylisonipecotylamino)-3-(4-pyridyl)-2-(4-fluorophenyl)-7-aza-indole], the IC50 was < 1 µM. In the case of `O=C(Nc1ccc2c(-c3ccncc3)c(-c3ccc(F)cc3)[nH]c2n1)C1CCNCC1` [Compound 107, 6-(4′-isonipecotylamino)-3-(4-pyridyl)-2-(4-fluorophenyl)-7-aza-indole], the IC50 was < 1 µM. Turning to `C[S+]([O-])CC[C@H](NC(=O)OC(C)(C)C)C(=O)Nc1ccc2c(-c3ccncc3)c(-c3ccc(F)cc3)[nH]c2n1` (some centres unmarked) [Compound 108, 6-(4′-methylsulfoxo-1′-oxo-2′S-t-butoxycarbonylaminobutylamino)-3-(4-pyridyl)-2-(4-fluorophenyl)-7-aza-indole], the IC50 was < 20 µM. Take `C[S+]([O-])CC[C@H](N)C(=O)Nc1ccc2c(-c3ccncc3)c(-c3ccc(F)cc3)[nH]c2n1` (some centres unmarked) [Compound 109, 6-(4′-methylsulfoxo-1′-oxo-2′S-aminobutylamino)-3-(4-pyridyl)-2-(4-fluorophenyl)-7-aza-indole]: the IC50 was < 20 µM. Regarding `CC(C)(C)OC(=O)N[C@@H](Cc1cccnc1)C(=O)Nc1ccc2c(-c3ccncc3)c(-c3ccc(F)cc3)[nH]c2n1` [Compound 110, 6-(3′-(3-pyridyl)-1′-oxo-2′S-t-butoxycarbonylaminopropylamino)-3-(4-pyridyl)-2-(4-fluorophenyl)-7-aza-indole], the IC50 is < 20 µM. In the case of `N[C@@H](Cc1cccnc1)C(=O)Nc1ccc2c(-c3ccncc3)c(-c3ccc(F)cc3)[nH]c2n1` [Compound 111, 6-(3′-(3-pyridyl)-1′-oxo-2′S-aminopropylamino)-3-(4-pyridyl)-2-(4-fluorophenyl)-7-aza-indole], the IC50 was < 20 µM. In the case of `CC(C)(C)OC(=O)N[C@@H](Cc1cncn1C(=O)OC(C)(C)C)C(=O)Nc1ccc2c(-c3ccncc3)c(-c3ccc(F)cc3)[nH]c2n1` [Compound 112], the IC50 is < 20 µM. In the case of `N[C@@H](Cc1cnc[nH]1)C(=O)Nc1ccc2c(-c3ccncc3)c(-c3ccc(F)cc3)[nH]c2n1` [Compound 113, 6-(L-histidinylamino)-3-(4-pyridyl)-2-(4-fluorophenyl)-7-aza-indole], the IC50 was < 20 µM. In the case of `O=C(Nc1ccc2c(-c3ccncc3)c(-c3ccc(F)cc3)[nH]c2n1)[C@@H]1Cc2ccccc2CN1` [Compound 115, 6-(3(S) 1′,2′,3′,4′-tetrahydro-3′-isoguinolinyloxoamino)-3-(4-pyridyl)-2-(4-fluorophenyl)-7-aza-indole] it was < 20 µM.

For `N[C@@H](C(=O)Nc1ccc2c(-c3ccncc3)c(-c3ccc(F)cc3)[nH]c2n1)c1ccccc1` [Compound 117, 6-(2′-phenyl-1′-oxo-2′R-aminoethylamino)-3-(4-pyridyl)-2-(4-fluorophenyl)-7-aza-indole], the IC50 is < 1 µM. As to `N[C@H](C(=O)Nc1ccc2c(-c3ccncc3)c(-c3ccc(F)cc3)[nH]c2n1)c1ccccc1` [Compound 119, 6-(2′-phenyl-1′-oxo-2′S-aminoethylamino)-3-(4-pyridyl)-2-(4-fluorophenyl)-7-aza-indole], the IC50 is < 1 µM. The same measure for `CN[C@@H](C(=O)Nc1ccc2c(-c3ccncc3)c(-c3ccc(F)cc3)[nH]c2n1)c1ccccc1` [Compound 121, 6-(2′-phenyl-1′-oxo-2′R-N-methylaminoethylamino)-3-(4-pyridyl)-2-(4-fluorophenyl)-7-aza-indole]: < 1 µM; for `C[C@H](N)C(=O)Nc1ccc2c(-c3ccncc3)c(-c3ccc(F)cc3)[nH]c2n1` [Compound 123, 6-(1′-oxo-2′S-aminopropylamino)-3-(4-pyridyl)-2-(4-fluorophenyl)-7-aza-indole]: < 1 µM. For the compound `N[C@@H](Cc1ccccc1)C(=O)Nc1ccc2c(-c3ccncc3)c(-c3ccc(F)cc3)[nH]c2n1` [Compound 125, 6-(3′-phenyl-1′-oxo-2′-(L)-aminopropylamino)-3-(4-pyridyl)-2-(4-fluorophenyl)-7-aza-indole], the IC50 was < 20 µM. In the case of `CN[C@@H](C)C(=O)Nc1ccc2c(-c3ccncc3)c(-c3ccc(F)cc3)[nH]c2n1` [Compound 127, 6-(1′-oxo-2′S-N-methylaminopropylamino)-3-(4-pyridyl)-2-(4-fluorophenyl)-7-aza-indole], the IC50 was < 1 µM. `CN[C@@H](CC(C)C)C(=O)Nc1ccc2c(-c3ccncc3)c(-c3ccc(F)cc3)[nH]c2n1` [Compound 129, 6-(1′-oxo-2′S-N-methyl-4-methyl-2-aminopentylamino)-3-(4-pyridyl)-2-(4-fluorophenyl)-7-aza-indole]: the IC50 was < 20 µM. For the compound `C[C@@H](N)C(=O)Nc1ccc2c(-c3ccncc3)c(-c3ccc(F)cc3)[nH]c2n1` [Compound 131, 6-(1′-oxo-2′R-aminopropylamino)-3-(4-pyridyl)-2-(4-fluorophenyl)-7-aza-indole], the IC50 is < 1 µM.
